Patent publication US5019574A, “3,4-diaminoquinoline and 3,4-diamino-5,6,7,8-tetrahydroquinoline compounds useful for improving psychoneural function” (Chugai Seiyaku Kabushiki Kaisha, priority 1988, dated 1991)
Read-outs that look alike come from different tables or passages of the source.

Experiments:
[1] = tested on: norepinephrine uptake into the synaptosomes; test: Inhibition of catecholamine uptake: 3H-norepinephrine uptake into synaptosomes; format: biochemical, rats (F344/Crj); details: 1 μM; norepinephrine uptake in the absence of drug compounds taken as 100
Protocol: (§1) Inhibition of Catecholamine Uptake:
(§2) A crude synaptosomal fraction (P2) was obtained from the brain of rats (F344/Crj) in the usual manner. In accordance with the method of S. H. Snyder and J. T. Coyle described in Journal of Pharmacology and Experimental Therapeutics, 165(1), 78-86, 1969, the fraction P2 was incubated in a Krebs-Henseleit bicarbonate buffer solution at 37° C. for 10 minutes together with 50 nM ^3 H-norepinephrine (0.25 jμCi). Thereafter, the uptake of norepinephrine into the synaptosomes was measured by the filtration method. Selected compounds were added at a concentration of 1 μM to the solution being incubated and their effect on norepinephrine uptake was examined. The control drug was tetrahydroaminoacridine (THA).
The results are shown in Table 3 in terms of percentage, with norepinephrine uptake in the absence of drug compounds being taken as 100.

MAO-A = biological target: T1, MAO-A (Rattus norvegicus, UniProt P21396); test: Inhibition of monoamine oxidase: MAO-A; format: biochemical, rats (F344/Crj); details: 10 μM; 12 μM [14C]-serotonin substrate; None = 100; read-out: Inhibition rate (%) MAO-A
T1 construct: A crude synaptosomal fraction (P2) was obtained from the brain of rats (F344/Crj); from tissue; host or cells: rat (F344/Crj) brain, crude synaptosomal fraction (P2), homogenized
T1 sequence (P21396 1-526): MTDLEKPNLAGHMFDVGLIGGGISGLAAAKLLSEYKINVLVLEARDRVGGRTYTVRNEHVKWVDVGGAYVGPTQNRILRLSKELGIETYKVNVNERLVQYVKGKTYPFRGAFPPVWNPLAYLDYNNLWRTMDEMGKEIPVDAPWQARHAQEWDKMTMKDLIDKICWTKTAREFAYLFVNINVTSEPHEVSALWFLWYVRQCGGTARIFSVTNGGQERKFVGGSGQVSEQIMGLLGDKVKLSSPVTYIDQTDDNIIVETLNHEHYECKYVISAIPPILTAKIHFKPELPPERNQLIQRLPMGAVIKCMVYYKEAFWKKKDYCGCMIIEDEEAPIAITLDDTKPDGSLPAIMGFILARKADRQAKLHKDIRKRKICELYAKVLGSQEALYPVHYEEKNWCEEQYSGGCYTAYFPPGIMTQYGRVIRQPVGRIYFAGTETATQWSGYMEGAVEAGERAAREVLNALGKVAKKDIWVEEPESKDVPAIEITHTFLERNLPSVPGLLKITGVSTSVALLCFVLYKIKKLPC
Protocol: (§3) Inhibition of Monoamine Oxidase (MAO):
(§4) A crude synaptosomal fraction (P2) was obtained from the brain of rats (F344/Crj) in the usual manner and homogenized to perform MAO activity measurements. The substrate was 12 μM [^14 C]-serotonin in the case of MAO-A activity measurements, and 5 μM [^14 C]-2-phenethylamine in the case of MAO-B activity measurements. In accordance with the method of R. J. Wurtman and J. Axelrod described in Biochemical Pharmacol. 12, […], 1963, the homogenates were incubated in 100 mM phosphate buffer (pH 7.4) at 37° C. for 20 minutes and the effect of adding selected compounds at a concentration of 10 μM was evaluated.

[2] = tested on: uptake of dopamine into synaptosomes; test: Inhibition of catecholamine uptake: 3H-dopamine uptake into synaptosomes; format: biochemical, rats (F344/Crj); details: 1 μM; dopamine uptake in the absence of drugs taken as 100
Protocol: as §2, §1
The uptake of dopamine into synaptosomes was measured by repeating the procedure of Test Example 2 except that 50 nM ^3 H-norepinephrine (0.25 μCi) was replaced by 15 nM ^3 H-dopamine (0.68 μCi). The control drug was tetrahydroaminoacridine (THA). The result is shown in Table 5 in terms of percentage, with dopamine uptake in the absence of drugs being taken as 100.

male ICR mice = test: Improvement of memory and learning ability tested by passive avoidance response; format: in vivo; details: dose 10 (μg/kg i.p.); retention trial 24 hours after acquisition trial
Protocol: Improvement of memory and Learning Ability Tested by Passive Avoidance Response:
Four groups of male ICR mice (10-14 weeks old). each consisting of 10 animals, were used in the experiment. Except for one control group, the mice were administered with selected compounds of the present invention. The experimental chamber consisted of a light and a dark compartment and an electric current shock source was connected to the floor grid in the dark compartment.
The experimental sessions consisted of acclimation. acquisition, and retention trials and were performed for […], one trial per day. In the acclimation trial, animals were placed in the light compartment of the experimental chamber and left there for 5 minutes to acclimate them to the apparatus. In the acquisition trial which was conducted on the 2nd day, the animals were placed in the light compartment and when they entered the dark compartment, they were confined and given an a.c. electric shock (1 mA) through the floor grid for 10 seconds. In the retention trial which was conducted 24 hours after the acquisition trial, the animals were placed in the light compartment of the chamber and the step-through latency (i.e., the time required for the animals to enter the dark compartment) was measured. A physiological saline solution was administered at the acclimation trial to all of the animals. At the acquisition trial, selected compounds were administered in amounts of 10 μg/kg of body weight (1 ml/100 g). The control group was administered the same amount of physiological saline solution 60 minutes before the start of the trial. All administrations were intraperitoneal.

acetylcholinesterase = biological target: T2, acetylcholinesterase (Electrophorus electricus, UniProt O42275); test: Inhibition of acetylcholinesterase activity; format: biochemical; details: activity without drug compound taken as 100, average of three measurements, read-out: Inhibition rate (%)
T2 construct: purchased Sigma C-2888
Protocol: Inhibition of Acetylcholinesterase Activity:
Acetylcholinesterase activity was assayed in accordance with the method of S. H. Sterri and F. Fonnum described in European Journal of Biochemistry, 91: 215-222, 1978. The method consisted of incubating 0.5 μU of authentic acetylcholinesterase ([…]) (Sigma, No. C-2888) at 30° C. for 15 minutes in a 20 mM sodium phosphate buffer (pH 7.4). with 1.3 mM [1^-14 C] acetylcholine (0.025 μCi) being used as a substrate. Selected compounds of the general formula (I) were added at a concentration of 1 μM to the reaction solution and the resulting effect on enzymatic activity was evaluated.
The result was obtained as the average of three measurements and shown in Table 2 in terms of percentage, with the activity for the case where no drum compound was added being taken as 100.

MAO-B = biological target: T3, MAO-B (Rattus norvegicus, UniProt P19643); test: Inhibition of monoamine oxidase: MAO-B; format: biochemical, rats (F344/Crj); details: 10 μM; 5 μM [14C]-2-phenethylamine substrate; None = 100; read-out: Inhibition rate (%) MAO-B
T3 construct: A crude synaptosomal fraction (P2) was obtained from the brain of rats (F344/Crj); from tissue; host or cells: rat (F344/Crj) brain, crude synaptosomal fraction (P2), homogenized
T3 sequence (P19643 1-520): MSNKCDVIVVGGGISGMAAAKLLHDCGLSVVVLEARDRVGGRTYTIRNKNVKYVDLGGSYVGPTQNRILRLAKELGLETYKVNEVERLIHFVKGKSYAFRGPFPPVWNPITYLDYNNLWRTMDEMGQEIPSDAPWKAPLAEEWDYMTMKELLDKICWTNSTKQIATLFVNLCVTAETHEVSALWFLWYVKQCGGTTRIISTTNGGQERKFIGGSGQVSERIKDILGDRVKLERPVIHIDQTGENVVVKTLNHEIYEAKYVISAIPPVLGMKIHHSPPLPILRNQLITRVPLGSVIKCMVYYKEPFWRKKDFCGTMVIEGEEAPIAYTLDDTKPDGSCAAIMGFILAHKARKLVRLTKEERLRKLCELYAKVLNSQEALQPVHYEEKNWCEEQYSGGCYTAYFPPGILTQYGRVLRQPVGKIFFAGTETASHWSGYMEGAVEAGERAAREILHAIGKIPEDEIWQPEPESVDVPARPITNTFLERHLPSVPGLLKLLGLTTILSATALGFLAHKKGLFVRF
Protocol: as §3, §4

male rats (F344) = format: in vivo; details: p<0.05, n=6, AF64AP-treated rats

T2 sequence (O42275 24-633): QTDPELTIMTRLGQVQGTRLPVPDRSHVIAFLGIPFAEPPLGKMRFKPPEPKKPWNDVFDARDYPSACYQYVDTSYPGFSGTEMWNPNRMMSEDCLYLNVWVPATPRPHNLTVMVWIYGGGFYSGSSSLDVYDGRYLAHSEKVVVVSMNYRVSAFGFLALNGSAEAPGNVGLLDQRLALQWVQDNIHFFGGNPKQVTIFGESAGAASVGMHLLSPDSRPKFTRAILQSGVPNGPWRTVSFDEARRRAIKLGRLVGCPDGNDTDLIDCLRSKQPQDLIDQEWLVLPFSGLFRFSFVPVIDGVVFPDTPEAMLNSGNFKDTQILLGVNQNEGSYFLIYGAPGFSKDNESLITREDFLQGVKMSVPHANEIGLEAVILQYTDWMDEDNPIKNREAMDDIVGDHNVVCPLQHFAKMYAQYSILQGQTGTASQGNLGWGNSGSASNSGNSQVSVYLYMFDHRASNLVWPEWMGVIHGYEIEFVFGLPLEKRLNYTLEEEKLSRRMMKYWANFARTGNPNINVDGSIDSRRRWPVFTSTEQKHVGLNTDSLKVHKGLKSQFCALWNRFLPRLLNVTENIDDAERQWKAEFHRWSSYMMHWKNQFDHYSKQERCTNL

Structure (SMILES)	Inhibition rate (%) [1] [%]	inhibition at 10 µM (MAO-A) [%]	Inhibition rate (%) [2] [%]	Step through latency (male ICR mice) [s]	inhibition at 1 µM (acetylcholinesterase) [%]	inhibition at 10 µM (MAO-B) [%]	number of correct responses vs vehicle control (male rats (F344); 10 mg/kg orally)	number of correct responses vs vehicle control (male rats (F344); 30 mg/kg orally)
Nc1c2c(nc(C3CCCCC3O)c1N1CCCCC1)CCCC2 (centres unmarked) [Compound 9]	69.4	59.4	78.6	54.4 ± 7.2	38.8	89.4		
Nc1c(N2CCCCC2)c(C2CCCCC2=O)nc2ccccc12 (centres unmarked) [Compound 7, 4-amino-3-piperidino-2-(2'-oxocyclohexyl)quinoline]	79.0	58.7	86.4	104.1 ± 28.5	38.1	87.5	statistically significant increase in the number of correct responses	statistically significant increase in the number of correct responses
